From patent US12600710B2, “Beta-catenin and b-cell lymphoma 9 (BCL9) inhibitors” (H. LEE MOFFITT CANCER CENTER AND RESEARCH INSTITUTE, INC., priority 2018, dated 2026)
Where a name gives a salt, the structure may show the parent alone. Read-outs that look alike come from different tables or passages of the source.

Molecular target: T1, β-catenin/BCL9 PPI (Homo sapiens, UniProt P35222)
T1 construct: Wild-type full-length β-catenin were cloned into a pET-28b vector carrying a C-terminal 6×histidine; made in house; host or cells: Escherichia coli BL21 DE3 (β-catenin); BCL9 peptide chemically synthesized
T1 sequence (P35222 1-781): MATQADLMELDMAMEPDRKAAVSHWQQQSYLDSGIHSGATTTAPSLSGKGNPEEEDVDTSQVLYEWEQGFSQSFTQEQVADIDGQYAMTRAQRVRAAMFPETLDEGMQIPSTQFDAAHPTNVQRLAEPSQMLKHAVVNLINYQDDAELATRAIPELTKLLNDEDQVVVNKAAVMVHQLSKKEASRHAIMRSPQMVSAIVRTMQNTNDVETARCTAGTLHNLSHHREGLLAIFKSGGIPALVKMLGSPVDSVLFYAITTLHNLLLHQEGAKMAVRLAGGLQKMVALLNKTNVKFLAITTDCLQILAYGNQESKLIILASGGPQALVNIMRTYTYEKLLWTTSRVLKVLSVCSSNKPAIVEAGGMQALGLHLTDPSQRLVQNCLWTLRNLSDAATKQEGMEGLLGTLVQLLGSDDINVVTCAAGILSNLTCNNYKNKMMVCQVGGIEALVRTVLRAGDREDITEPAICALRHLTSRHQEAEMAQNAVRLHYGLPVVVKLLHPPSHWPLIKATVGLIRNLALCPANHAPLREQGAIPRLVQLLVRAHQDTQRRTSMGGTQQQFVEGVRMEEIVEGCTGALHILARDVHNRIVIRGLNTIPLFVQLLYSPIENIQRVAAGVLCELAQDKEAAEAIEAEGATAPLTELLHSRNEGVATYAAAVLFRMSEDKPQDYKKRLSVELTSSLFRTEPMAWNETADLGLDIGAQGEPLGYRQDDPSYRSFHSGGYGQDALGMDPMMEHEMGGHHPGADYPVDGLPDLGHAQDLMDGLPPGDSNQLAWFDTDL
Assay: AlphaScreen competitive inhibition assay of the β-catenin/BCL9 PPI
Assay type: binding
Details: mean ± SD, triplicate, Ki derived from IC50 (Nikolovska-Coleska method)
Experimental: AlphaScreen competitive inhibition assays. For the competitive inhibition assays of the β-catenin/BCL9 PPI, the negative control (equivalent to 0% inhibition) refers to 5.0 nM of biotinylated BCL9, 40 nM of His6-tagged β-catenin, and 10 μg/mL of donor and acceptor beads in a final volume of 25 μL assay buffer, but no tested inhibitor present. The positive control (equivalent to 100% inhibition) refers to 5.0 nM of biotinylated BCL9 and 10 μg/mL of donor and acceptor beads in a final volume of 25 μL assay buffer.
For the β-catenin/BCL9 assay, 5 nM of biotinylated BCL9 and 40 nM of His6-tagged β-catenin were incubated in assay buffer at 4° C. for 30 min. Different concentrations of the tested inhibitor were added and incubated in 20 μL assay buffer at 4° C. for another 1 h. All of the above assay plates were covered and gently mixed on an orbital shaker. The donor and acceptor beads were then added to the plates to a final concentration of 10 μg/mL in 25 μL assay buffer. The mixture was incubated for 1 h at 4° C. before detection. The IC50 value was determined by nonlinear least-square analysis of GraphPad Prism 5.0. The Ki values were derived from the IC50 values using a method reported by Nikolovska-Coleska et al (Nikolovska-Coleska, Z.; Wang, R.; Fang, X.; Pan, H.; Tomita, Y.; Li, P.; Roller, P. P.; Krajewski, K.; Saito, N. G.; Stuckey, J. A.; Wang, S. Development and optimization of a binding assay for the XIAP BIR3 domain using fluorescence polarization. Anal. Biochem. 2004, 332, 261-273). The assays were conducted under the conditions required by Nikolovska-Coleska et al.'s equation for determining the Ki values. All of the experiments were performed in triplicate. The results were expressed as mean±standard deviation.

[1] = Example 1 compounds, experiment 3, read-out: Ki (μM ± SD) experiment 3
[2] = Example 1 compounds, experiment 4, read-out: Ki (μM ± SD) experiment 4

A Ki [1] of 410 ± 56 µM and a Ki [2] of 770 ± 140 µM were found for `CC(=O)Nc1cc(F)cc(C(=O)N2CCN(C(=O)c3ccc(O[C@H]4CCNC4)c(C4CCCCC4)c3)C(C(=O)NCC3CCCCC3)C2)c1` (stereo partly drawn) [Compound 26, 4-(3-Acetamido-5-fluorobenzoyl)-1-(3-cyclohexyl-4-(((S)-pyrrolidin-3-yl)oxy)benzoyl)-N-(cyclohexylmethyl) piperazine-2-carboxamide trifluoroacetate] in this work.

A Ki (Example 2 compounds, experiment 1, read-out: Ki (μM ± SD) experiment 1) of 41.4 ± 4.33 µM was found for `CN(C)Cc1cn(Cc2cc(F)cc(OC3CCN(C(=O)c4ccc(O[C@H]5CCNC5)c(C5CCCCC5)c4)CC3)c2)nn1` [Compound 4, (S)-(3-cyclohexyl-4-(pyrrolidin-3-yloxy)phenyl) (4-(3-((4-((dimethylamino)methyl)-1H-1,2,3-triazol-1-yl)methyl)-5-fluorophenoxy)piperidin-1-yl) methanone dihydrochloride] in this work.

A Ki [1] of 660 ± 110 µM and a Ki [2] of 600 ± 89 µM were found for `CC(=O)Nc1cc(F)cc(C(=O)N2CCN(C(=O)c3ccc(O[C@H]4CCNC4)c(C4CCCCC4)c3)C(C(=O)NCc3ccccc3)C2)c1` (stereo partly drawn) [Compound 28, 4-(3-Acetamido-5-fluorobenzoyl)-N-benzyl-1-(3-cyclohexyl-4-(((S)-pyrrolidin-3-yl)oxy)benzoyl) piperazine-2-carboxamide trifluoroacetate] in this work.

A Ki [1] of 410 ± 41 µM and a Ki [2] of 700 ± 73 µM were found for `CC(=O)Nc1cc(F)cc(C(=O)N2CCN(C(=O)c3ccc(O[C@H]4CCNC4)c(C4CCCCC4)c3)C(C(=O)NC(C)C)C2)c1` (stereo partly drawn) [Compound 21, 4-(3-Acetamido-5-fluorobenzoyl)-1-(3-cyclohexyl-4-(((S)-pyrrolidin-3-yl)oxy)benzoyl)-N-isopropylpiperazine-2-carboxamide trifluoroacetate] in this work.

A Ki [1] greater than 1000 µM and a Ki [2] greater than 1000 µM were found for `CC(=O)Nc1cc(F)cc(C(=O)N2CCN(C(=O)c3ccc(O[C@H]4CCNC4)c(C4CCCCC4)c3)C(C(=O)N(C)C(C)C)C2)c1` (stereo partly drawn) [Compound 22, 4-(3-Acetamido-5-fluorobenzoyl)-1-(3-cyclohexyl-4-(((S)-pyrrolidin-3-yl)oxy)benzoyl)-N-isopropyl-N-methylpiperazine-2-carboxamide trifluoroacetate] in this work.

A Ki [1] of 560 ± 120 µM and a Ki [2] of 740 ± 150 µM were found for `CC(=O)Nc1cc(F)cc(C(=O)N2CCN(C(=O)c3ccc(O[C@H]4CCNC4)c(C4CCCCC4)c3)C(C(=O)N(C)Cc3ccccc3)C2)c1` (stereo partly drawn) [Compound 29, 4-(3-Acetamido-5-fluorobenzoyl)-N-benzyl-1-(3-cyclohexyl-4-(((S)-pyrrolidin-3-yl)oxy)benzoyl)-N-methylpiperazine-2-carboxamide trifluoroacetate] in this work.

A Ki [1] of 73 µM and a Ki [2] of 150 ± 17 µM were found for `CC(=O)Nc1cc(F)cc(C(=O)N2CCN(C(=O)c3ccc(O[C@H]4CCNC4)c(C4CCCCC4)c3)C(C(=O)N(C)C)C2)c1` (stereo partly drawn) [Compound 18, 4-(3-Acetamido-5-fluorobenzoyl)-1-(3-cyclohexyl-4-(((S)-pyrrolidin-3-yl)oxy)benzoyl)-N,N-dimethylpiperazine-2-carboxamide trifluoroacetate] in this work.
